In ChEMBL document CHEMBL5625187, “A facile and selective derivatization approach on kynurenine-NH2 in daptomycin, leading to the discovery of hexakynomycin to combat multidrug-resistant Gram-positive pathogens especially daptomycin-resistant bacteria” (Eur J Med Chem, 2023):
Values after ≈ are worked out from the molar mass of the structure shown. Active and inactive are the calls of the source. No cut-off for these calls is given here.

Assays:
Staphylococcus aureus [1] = assay: Antibacterial activity against methicillin-resistant Staphylococcus aureus clinical isolate 20-3 assessed as reduction in microbial growth incubated for 24 hrs by broth microdilution method; assay type: functional
[2] = Toxicity in ICR mouse excisional wound model infected with Staphylococcus aureus Newman ATCC 25904 assessed as survival at 20 mg/kg administered topically for 7 days; assay type: organism-based; conditions: in vivo, topical_or_ocular, 168 h, route top, time 7 day
Enterococcus faecalis [3] = assay: Antibacterial activity against Enterococcus faecalis EFA 20-1 assessed as reduction in microbial growth incubated for 24 hrs by broth microdilution method; assay type: functional
Enterococcus faecium [4] = assay: Antibacterial activity against Enterococcus faecium EFM 20-1 assessed as reduction in microbial growth incubated for 24 hrs by broth microdilution method; assay type: functional
[5] = Solubility of compound in saline at >10 mg/ml at room temperature; assay type: physicochemical; conditions: buffer
Erythrocyte = assay: Hemolytic activity in rat RBC at 400 ug/ml incubated for 1 hr; assay type: toxicity, cell-based; conditions: dose 400 µg/ml
Enterococcus faecalis [6] = assay: Potency index, ratio of daptomycin MIC to test compound MIC for antibacterial activity against Enterococcus faecalis EFA 20-1; assay type: functional
[7] = Solubility of compound in deionized water at >10 mg/ml at room temperature; assay type: physicochemical; conditions: buffer
Enterococcus faecalis [8] = assay: Antibacterial activity against vancomycin-resistant Enterococcus faecalis VREfa 20-1 assessed as reduction in microbial growth incubated for 24 hrs by broth microdilution method; assay type: functional
Staphylococcus aureus [9] = assay: Antibacterial activity against methicillin-susceptible Staphylococcus aureus clinical isolate 20-1 assessed as reduction in microbial growth incubated for 24 hrs by broth microdilution method; assay type: functional
Staphylococcus aureus [10] = assay: Ratio of MIC for antibacterial activity against Staphylococcus aureus in presence of MHB medium to MIC for antibacterial activity against Staphylococcus aureus CAMHB medium; assay type: functional
Staphylococcus aureus [11] = assay: Antibacterial activity against methicillin-resistant Staphylococcus aureus clinical isolate 20-3 infected in iv dosed Kunming mouse model assessed as increase in survival measured after 14 days; assay type: functional; conditions: Clinical isolate 20-3, 336 h, time 14 day
HEK293 = assay: Cytotoxicity against HEK293 cells assessed as reduction in cell viability at 80 ug/ml after 72 hrs by CCK-8 assay relative to control; assay type: toxicity, cell-based; conditions: human, hek293, 72 h, at 80 µg/mL
Staphylococcus aureus [12] = assay: Antibacterial activity against methicillin-susceptible Staphylococcus aureus Newman ATCC 25904 assessed as reduction in microbial growth incubated for 24 hrs by broth microdilution method; assay type: functional
Enterococcus faecium [13] = assay: Antibacterial activity against glycopeptide-resistant Enterococcus faecium Efm-HS-0649 assessed as reduction in microbial growth incubated for 24 hrs by broth microdilution method; assay type: functional
Enterococcus faecium [14] = assay: Potency index, ratio of daptomycin MIC to test compound MIC for antibacterial activity against Enterococcus faecium EFM 20-1; assay type: functional
[15] = Observed volume of distribution at steady state in CD-1 mouse at 1 mg/kg, iv measured up to 24 hrs by UPLC-MS analysis; assay type: ADME, organism-based; conditions: in vivo, read-out: Vdss
Staphylococcus aureus [16] = assay: Antibacterial activity against Staphylococcus aureus assessed as reduction in bacterial growth incubated for 16 to 24 hrs by serial dilution method; assay type: functional; conditions: time 16-24 hrs
Staphylococcus aureus [17] = assay: Induction of membrane disruption in Staphylococcus aureus at 4 to 16 ug/ml incubated for 4 hrs by propidium iodide staining based flow cytometric analysis; assay type: functional, organism-based; conditions: dose 4-16 µg/ml
Staphylococcus aureus [18] = assay: Ratio of MIC for antibacterial activity against Staphylococcus aureus in presence of PG to MIC for antibacterial activity against Staphylococcus aureus; assay type: functional
Staphylococcus aureus [19] = assay: Potency index, ratio of daptomycin MIC to test compound MIC for antibacterial activity against methicillin-susceptible Staphylococcus aureus ATCC 29213; assay type: functional
Staphylococcus aureus [20] = assay: Antibacterial activity against Staphylococcus aureus assessed as reduction in bacterial growth incubated for 16 to 24 hrs in presence of CAMHB medium by serial dilution method; assay type: functional; conditions: time 16-24 hrs
Enterococcus faecium [21] = assay: Potency index, ratio of daptomycin MIC to test compound MIC for antibacterial activity against glycopeptide-resistant Enterococcus faecium Efm-HS-0649; assay type: functional
Staphylococcus aureus [22] = assay: Antibacterial activity against vancomycin-intermediate resistant Staphylococcus aureus ATCC 700699 assessed as reduction in microbial growth incubated for 24 hrs by broth microdilution method; assay type: functional
Staphylococcus aureus [23] = assay: Antibacterial activity against methicillin-resistant Staphylococcus aureus clinical isolate 20-1 assessed as reduction in microbial growth incubated for 24 hrs by broth microdilution method; assay type: functional
Staphylococcus aureus [24] = assay: Antibacterial activity against vancomycin-intermediate resistant Staphylococcus aureus Mu 50 assessed as reduction in microbial growth incubated for 24 hrs by broth microdilution method; assay type: functional
Staphylococcus aureus [25] = assay: Antibacterial activity against Staphylococcus aureus infected in zebra fish model assessed as survival rate at 10 mg/kg, ip after 8 hrs by relative to control; assay type: functional
Enterococcus faecalis [26] = assay: Antibacterial activity against Enterococcus faecalis ATCC 29212 assessed as reduction in microbial growth incubated for 24 hrs by broth microdilution method; assay type: functional
Enterococcus faecalis [27] = assay: Potency index, ratio of daptomycin MIC to test compound MIC for antibacterial activity against Enterococcus faecalis ATCC 29212; assay type: functional
Staphylococcus aureus [28] = assay: Antibacterial activity against Staphylococcus aureus assessed as reduction in bacterial growth incubated for 16 to 24 hrs in presence of MHB medium by serial dilution method; assay type: functional; conditions: time 16-24 hrs
Staphylococcus aureus [29] = assay: Antibacterial activity against methicillin-resistant Staphylococcus aureus clinical isolate 20-2 assessed as reduction in microbial growth incubated for 24 hrs by broth microdilution method; assay type: functional
[30] = Toxicity in ICR mouse excisional wound model infected with Staphylococcus aureus Newman ATCC 25904 assessed as change in weight at 20 mg/kg administered topically for 7 days; assay type: organism-based; conditions: in vivo, topical_or_ocular, 168 h, route top, time 7 day
Staphylococcus aureus [31] = assay: Induction of drug resistance against Staphylococcus aureus Newman ATCC 25904 assessed as fold increase in MIC after 15 days by broth microdilution method; assay type: functional; conditions: time 15.0 day
Staphylococcus aureus [32] = assay: Antibacterial activity against methicillin-resistant Staphylococcus aureus USA300 assessed as reduction in microbial growth incubated for 24 hrs by broth microdilution method; assay type: functional
Staphylococcus aureus [33] = assay: Antibacterial activity against Staphylococcus aureus assessed as reduction in bacterial growth incubated for 16 to 24 hrs in presence of PG by serial dilution method; assay type: functional; conditions: time 16-24 hrs
Staphylococcus aureus [34] = assay: Antibacterial activity against methicillin-susceptible Staphylococcus aureus ATCC 29213 assessed as reduction in microbial growth incubated for 24 hrs by broth microdilution method; assay type: functional
[35] = Half life in PBS at pH 7.2 to 7.4 at 37 degC for 24 hrs; assay type: ADME
Staphylococcus aureus [36] = assay: Antimicrobial activity in Staphylococcus aureus Newman ATCC 25904 infected in ICR mouse excisional wound model assessed as decrease in bacterial growth at 20 mg/kg administered topically and measured after 24 hrs relative to control; assay type: functional; design: scale not given: the % may be the effect or the level left; conditions: route top
Staphylococcus aureus [37] = assay: Potency index, ratio of daptomycin MIC to test compound MIC for antibacterial activity against methicillin-susceptible Staphylococcus aureus Newman ATCC 25904; assay type: functional
Staphylococcus aureus [38] = assay: Antibacterial activity against Staphylococcus aureus infected in zebra fish model assessed as survival rate at 10 mg/kg, ip after 24 hrs by relative to control; assay type: functional
Staphylococcus aureus [39] = assay: Potency index, ratio of daptomycin MIC to test compound MIC for antibacterial activity against methicillin-susceptible Staphylococcus aureus clinical isolate 20-1; assay type: functional

## CCCCCCCCCC(=O)N[C@@H](Cc1c[nH]c2ccccc12)C(=O)N[C@H](CC(N)=O)C(=O)N[C@@H](CC(=O)O)C(=O)N[C@@H]1C(=O)NCC(=O)N[C@@H](CCCN)C(=O)N[C@@H](CC(=O)O)C(=O)N[C@H](C)C(=O)N[C@@H](CC(=O)O)C(=O)NCC(=O)N[C@H](CO)C(=O)N[C@@H]([C@H](C)CC(=O)O)C(=O)N[C@@H](CC(=O)c2ccccc2NCCCCCC)C(=O)O[C@@H]1C
Staphylococcus aureus [1]
  MIC: ≤ 0.008 µg/mL
[2]
  Activity: Non-Toxic
Enterococcus faecalis [3]
  MIC: 0.5 µg/mL
Enterococcus faecium [4]
  MIC: 1 µg/mL
[5]
  solubility: Soluble
Erythrocyte
  Activity: Non-Toxic
Enterococcus faecalis [6]
  Ratio: >=4
[7]
  solubility: Soluble
Enterococcus faecalis [8]
  MIC: 0.5 µg/mL
Staphylococcus aureus [9]
  MIC: 0.015 µg/mL
Staphylococcus aureus [10]
  Ratio: 8
Staphylococcus aureus [11]
  ED50: 0.29 mg/kg
HEK293
  Activity: ~ 100%
Staphylococcus aureus [12]
  MIC: 0.5 µg/mL
Enterococcus faecium [13]
  MIC: 0.25 µg/mL
Enterococcus faecium [14]
  Ratio: >=4
[15]
  Vd: 0.2 L/kg
Staphylococcus aureus [16]
  MIC: 0.5 µg/mL (≈ 0.293 µM)
Staphylococcus aureus [17]
  Activity: Active
Staphylococcus aureus [18]
  Ratio: 512
Staphylococcus aureus [19]
  Ratio: >=4
Staphylococcus aureus [20]
  MIC: 0.5 µg/mL
Enterococcus faecium [21]
  Ratio: 4
Staphylococcus aureus [22]
  MIC: 2 µg/mL
Staphylococcus aureus [23]
  MIC: ≤ 0.008 µg/mL
Staphylococcus aureus [24]
  MIC: 2 µg/mL
Staphylococcus aureus [25]
  survival at 10 mg/kg: 37.5%
Enterococcus faecalis [26]
  MIC: 0.5 µg/mL
Enterococcus faecalis [27]
  Ratio: >=4
Staphylococcus aureus [28]
  MIC: 4 µg/mL
Staphylococcus aureus [29]
  MIC: 0.03 µg/mL
[30]
  Activity: Non-Toxic
Staphylococcus aureus [31]
  fold change (FC): 4
Staphylococcus aureus [32]
  MIC: 0.125 µg/mL
Staphylococcus aureus [33]
  MIC: 256 µg/mL
Staphylococcus aureus [34]
  MIC: ≤ 0.008 µg/mL
[35]
  half-life: 19 days
Staphylococcus aureus [36]
  Activity: 100%
Staphylococcus aureus [37]
  Ratio: 4
Staphylococcus aureus [38]
  survival at 10 mg/kg: 25%
Staphylococcus aureus [39]
  Ratio: >=4

## CN[C@H](CC(C)C)C(=O)N[C@H]1C(=O)N[C@@H](CC(N)=O)C(=O)N[C@H]2C(=O)N[C@H]3C(=O)N[C@H](C(=O)N[C@H](C(=O)O)c4cc(O)cc(O)c4-c4cc3ccc4O)[C@H](O)c3ccc(c(Cl)c3)Oc3cc2cc(c3O[C@@H]2O[C@H](CO)[C@@H](O)[C@H](O)[C@H]2O[C@H]2C[C@](C)(N)[C@H](O)[C@H](C)O2)Oc2ccc(cc2Cl)[C@H]1O [VANCOMYCIN]
Enterococcus faecalis [3]
  MIC: 1 µg/mL
Enterococcus faecalis [8]
  MIC: > 16 µg/mL
Enterococcus faecium [13]
  MIC: > 128 µg/mL
Staphylococcus aureus [22]
  MIC: 8 µg/mL
Staphylococcus aureus [24]
  MIC: 8 µg/mL

## CCCCCCCCCC(=O)N[C@@H](Cc1c[nH]c2ccccc12)C(=O)N[C@H](CC(N)=O)C(=O)N[C@@H](CC(=O)O)C(=O)N[C@@H]1C(=O)NCC(=O)N[C@@H](CCCN)C(=O)N[C@@H](CC(=O)O)C(=O)N[C@H](C)C(=O)N[C@@H](CC(=O)O)C(=O)NCC(=O)N[C@H](CO)C(=O)N[C@@H]([C@H](C)CC(=O)O)C(=O)N[C@@H](CC(=O)c2ccccc2N)C(=O)O[C@@H]1C
Staphylococcus aureus [1]
  MIC: 1 µg/mL
Enterococcus faecalis [3]
  MIC: 4 µg/mL
Enterococcus faecium [4]
  MIC: 8 µg/mL
Erythrocyte
  Activity: Non-Toxic
Enterococcus faecalis [8]
  MIC: 8 µg/mL
Staphylococcus aureus [9]
  MIC: 1 µg/mL
Staphylococcus aureus [10]
  Ratio: 16
Staphylococcus aureus [11]
  ED50: 0.2 mg/kg
Staphylococcus aureus [12]
  MIC: 2 µg/mL
Enterococcus faecium [13]
  MIC: 8 µg/mL
[15]
  Vd: 0.115 L/kg
Staphylococcus aureus [16]
  MIC: 4 µg/mL (≈ 2.47 µM)
Staphylococcus aureus [17]
  Activity: Active
Staphylococcus aureus [18]
  Ratio: 32
Staphylococcus aureus [20]
  MIC: 4 µg/mL
Staphylococcus aureus [22]
  MIC: 8 µg/mL
Staphylococcus aureus [23]
  MIC: 1 µg/mL
Staphylococcus aureus [24]
  MIC: 8 µg/mL
Enterococcus faecalis [26]
  MIC: 4 µg/mL
Staphylococcus aureus [28]
  MIC: 64 µg/mL
Staphylococcus aureus [29]
  MIC: 1 µg/mL
Staphylococcus aureus [31]
  fold change (FC): 4
Staphylococcus aureus [32]
  MIC: 2 µg/mL
Staphylococcus aureus [33]
  MIC: 128 µg/mL
Staphylococcus aureus [34]
  MIC: 1 µg/mL

## CCCCCCCCCNc1ccccc1C(=O)C[C@@H]1NC(=O)[C@H]([C@H](C)CC(=O)O)NC(=O)[C@@H](CO)NC(=O)CNC(=O)[C@H](CC(=O)O)NC(=O)[C@@H](C)NC(=O)[C@H](CC(=O)O)NC(=O)[C@H](CCCN)NC(=O)CNC(=O)[C@@H](NC(=O)[C@H](CC(=O)O)NC(=O)[C@@H](CC(N)=O)NC(=O)[C@H](Cc2c[nH]c3ccccc23)NC(=O)CCCCCCCCC)[C@@H](C)OC1=O (single isomer, unassigned)
Staphylococcus aureus [12]
  MIC: 2 µg/mL
Enterococcus faecium [13]
  MIC: 1 µg/mL
Enterococcus faecium [21]
  Ratio: 2
Staphylococcus aureus [24]
  MIC: 4 µg/mL
Staphylococcus aureus [32]
  MIC: 1 µg/mL
Staphylococcus aureus [37]
  Ratio: 2

## CCCCCCCCCC(=O)N[C@@H](Cc1c[nH]c2ccccc12)C(=O)N[C@H](CC(N)=O)C(=O)N[C@@H](CC(=O)O)C(=O)N[C@@H]1C(=O)NCC(=O)N[C@@H](CCCN)C(=O)N[C@@H](CC(=O)O)C(=O)N[C@H](C)C(=O)N[C@@H](CC(=O)O)C(=O)NCC(=O)N[C@H](CO)C(=O)N[C@@H]([C@H](C)CC(=O)O)C(=O)N[C@@H](CC(=O)c2ccccc2NCc2ccccc2)C(=O)O[C@@H]1C
Staphylococcus aureus [12]
  MIC: 0.5 µg/mL
Enterococcus faecium [13]
  MIC: 1 µg/mL
Enterococcus faecium [21]
  Ratio: 4
Staphylococcus aureus [24]
  MIC: 4 µg/mL
Staphylococcus aureus [32]
  MIC: 0.5 µg/mL
Staphylococcus aureus [37]
  Ratio: 4
